# Active and inactive are the calls of the source. The calls are words filed in the database; no cut-off is given here.
# How the values were obtained:
# [1] = system: Micrococcus luteus; assay: Antimicrobial activity against Micrococcus luteus CMCC(B) 28001 upto 128 ug/mL after 24 hrs by two fold dilution method; format: functional, organism-based
# [2] = system: Candida albicans; assay: Antifungal activity against fluconazole-resistant Candida albicans CMAM 0597 upto 128 ug/mL after 48 to 72 hrs by broth microdilution method; format: functional, organism-based
# [3] = system: Aspergillus sp.; assay: Antifungal activity against Aspergillus sp. after 48 to 72 hrs by broth microdilution method; format: functional
# [4] = system: Bacillus subtilis; assay: Antimicrobial activity against Bacillus subtilis after 24 hrs by two fold dilution method; format: functional
# [5] = system: Proteus vulgaris; assay: Antimicrobial activity against Proteus vulgaris CMCC(B) 49001 upto 128 ug/mL after 24 hrs by two fold dilution method; format: functional, organism-based
# [6] = system: Candida albicans; assay: Antifungal activity against Candida albicans CMAH 0572 upto 128 ug/mL after 48 to 72 hrs by broth microdilution method; format: functional, organism-based
# [7] = system: Rhodotorula glutinis; assay: Antimicrobial activity against Rhodotorula glutinis SYM 2209 after 48 to 72 hrs by broth microdilution method; format: functional
# [8] = system: Pseudomonas aeruginosa; assay: Antimicrobial activity against Pseudomonas aeruginosa ATCC 27853 upto 128 ug/mL after 24 hrs by two fold dilution method; format: functional, organism-based
# [9] = system: Staphylococcus aureus; assay: Antibacterial activity against methicillin-resistant Staphylococcus aureus CMAH 0515 upto 128 ug/mL after 24 hrs by two fold dilution method; format: functional, organism-based
# [10] = system: Escherichia coli; assay: Antimicrobial activity against Escherichia coli ATCC 25922 upto 128 ug/mL after 24 hrs by two fold dilution method; format: functional, organism-based
# [11] = system: Cryptococcus neoformans; assay: Antifungal activity against Cryptococcus neoformans ATCC 90112 upto 128 ug/mL after 48 to 72 hrs by broth microdilution method; format: functional, organism-based
# [12] = system: Candida albicans; assay: Antifungal activity against Candida albicans CMAM 0592 upto 128 ug/mL after 48 to 72 hrs by broth microdilution method; format: functional, organism-based
# [13] = system: Candida albicans; assay: Antifungal activity against Candida albicans CMAH 0527 after 48 to 72 hrs by broth microdilution method; format: functional
# [14] = system: Staphylococcus aureus; assay: Antibacterial activity against methicillin-resistant Staphylococcus aureus CMAH 0430 upto 128 ug/mL after 24 hrs by two fold dilution method; format: functional, organism-based
# [15] = system: Candida albicans; assay: Antifungal activity against Candida albicans CMAH 0507 after 48 to 72 hrs by broth microdilution method; format: functional
# [16] = system: Candida albicans; assay: Antifungal activity against Candida albicans CMAH 0503 after 48 to 72 hrs by broth microdilution method; format: functional
# [17] = system: Candida albicans; assay: Antifungal activity against fluconazole-resistant Candida albicans CMAH 0520 after 48 to 72 hrs by broth microdilution method; format: functional
# [18] = system: Saccharomyces cerevisiae; assay: Antimicrobial activity against Saccharomyces cerevisiae upto 128 ug/mL after 48 to 72 hrs by broth microdilution method; format: functional, organism-based
# [19] = system: Candida albicans; assay: Antifungal activity against Candida albicans CMAM 0577 upto 128 ug/mL after 48 to 72 hrs by broth microdilution method; format: functional, organism-based
# [20] = system: Klebsiella aerogenes; assay: Antibacterial activity against Enterobacter aerogenes CMCC(B) 45103 upto 128 ug/mL after 24 hrs by two fold dilution method; format: functional, organism-based
# [21] = system: Candida albicans; assay: Antifungal activity against Candida albicans CMAH 0511 after 48 to 72 hrs by broth microdilution method; format: functional
# [22] = system: Candida albicans; assay: Antifungal activity against Candida albicans ATCC 10231 after 48 to 72 hrs by broth microdilution method; format: functional
# [23] = system: Staphylococcus aureus; assay: Antibacterial activity against methicillin-resistant Staphylococcus aureus CMAH 0504 upto 128 ug/mL by two fold dilution method; format: functional, organism-based
# [24] = system: Candida albicans; assay: Antifungal activity against Candida albicans CMAM 0594 upto 128 ug/mL after 48 to 72 hrs by broth microdilution method; format: functional, organism-based
# [25] = system: Staphylococcus aureus; assay: Antibacterial activity against methicillin-susceptible Staphylococcus aureus ATCC 25923 after 24 hrs by two fold dilution method; format: functional; details: ATCC 25923, 24 h
# [26] = system: Candida albicans; assay: Antifungal activity against Candida albicans CMAH 0501 after 48 to 72 hrs by broth microdilution method; format: functional
# [27] = system: Saccharomyces cerevisiae; assay: Antimicrobial activity against Saccharomyces cerevisiae after 48 to 72 hrs by broth microdilution method; format: functional
# [28] = system: Candida albicans; assay: Antifungal activity against Candida albicans CMAM 0594 after 48 to 72 hrs by broth microdilution method; format: functional
# [29] = system: Micrococcus luteus; assay: Antimicrobial activity against Micrococcus luteus CMCC(B) 28001 after 24 hrs by two fold dilution method; format: functional
# [30] = system: Candida albicans; assay: Antifungal activity against Candida albicans CMAM 0577 after 48 to 72 hrs by broth microdilution method; format: functional
# [31] = system: Candida albicans; assay: Antifungal activity against fluconazole-resistant Candida albicans CMAM 0597 after 48 to 72 hrs by broth microdilution method; format: functional
# [32] = system: Staphylococcus aureus; assay: Antibacterial activity against methicillin-resistant Staphylococcus aureus CMAH 0430 after 24 hrs by two fold dilution method; format: functional
# [33] = Toxicity in human erythrocytes assessed as haemolysis upto 500 ug/mL; format: cell-based, Erythrocyte; details: read-out: Activity
# [34] = Toxicity in human erythrocytes assessed as haemolysis upto 30 ug/mL; format: cell-based, Erythrocyte; details: read-out: Activity
# [35] = system: Staphylococcus aureus; assay: Antibacterial activity against methicillin-resistant Staphylococcus aureus CMAH 0515 after 24 hrs by two fold dilution method; format: functional
# [36] = system: Candida albicans; assay: Antifungal activity against Candida albicans CMAH 0572 after 48 to 72 hrs by broth microdilution method; format: functional
# [37] = Toxicity in human erythrocytes assessed as haemolysis upto 4000 ug/mL; format: cell-based, Erythrocyte; details: read-out: Activity
# [38] = system: Proteus vulgaris; assay: Antimicrobial activity against Proteus vulgaris CMCC(B) 49001 after 24 hrs by two fold dilution method; format: functional
# [39] = system: Klebsiella aerogenes; assay: Antibacterial activity against Enterobacter aerogenes CMCC(B) 45103 after 24 hrs by two fold dilution method; format: functional
# [40] = system: Pseudomonas aeruginosa; assay: Antimicrobial activity against Pseudomonas aeruginosa ATCC 27853 after 24 hrs by two fold dilution method; format: functional; details: ATCC 27853, 24 h
# [41] = system: Escherichia coli; assay: Antimicrobial activity against Escherichia coli ATCC 25922 after 24 hrs by two fold dilution method; format: functional; details: ATCC 25922, 24 h
# [42] = system: Cryptococcus neoformans; assay: Antifungal activity against Cryptococcus neoformans ATCC 90112 after 48 to 72 hrs by broth microdilution method; format: functional
# [43] = system: Staphylococcus aureus; assay: Antibacterial activity against methicillin-resistant Staphylococcus aureus CMAH 0504 after 24 hrs by two fold dilution method; format: functional
# [44] = system: Candida albicans; assay: Antifungal activity against Candida albicans CMAM 0592 after 48 to 72 hrs by broth microdilution method; format: functional
smiles,measurement,setting,value
COC(=O)[C@H](Cc1c[nH]c2ccccc12)NC(=O)c1cccc(C(=O)N[C@@H](Cc2c[nH]c3ccccc23)C(=O)OC)n1,Activity,[1],inactive
same,Activity,[2],inactive
same,MIC50,[3]; Aspergillus sp.,> 128 µg/mL
same,MIC90,[3]; Aspergillus sp.,> 128 µg/mL
same,MBC,[4],> 128 µg/mL
same,MIC,[4],32 µg/mL
same,Activity,[5],inactive
same,Activity,[6],inactive
same,MFC,[7],128 µg/mL
same,MIC,[7],32 µg/mL
same,Activity,[8],inactive
same,Activity,[9],inactive
same,Activity,[10],inactive
same,Activity,[11],inactive
same,Activity,[12],inactive
same,MBC,[13],128 µg/mL
same,MIC,[13],32 µg/mL
same,Activity,[14],inactive
same,MIC,[15],64 µg/mL
same,MFC,[16],128 µg/mL
same,MIC,[16],32 µg/mL
same,MIC,[17],64 µg/mL
same,Activity,[18],inactive
same,Activity,[19],inactive
same,Activity,[20],inactive
same,MBC,[21],128 µg/mL
same,MIC,[21],32 µg/mL
same,MFC,[22],128 µg/mL
same,MIC,[22],32 µg/mL
same,Activity,[23],inactive
same,Activity,[24],inactive
same,MIC,[25],64 µg/mL
same,MFC,[26],128 µg/mL
same,MIC,[26],32 µg/mL
COC(=O)[C@H](Cc1c[nH]c2ccccc12)NC(=O)c1ccccn1,MFC,[27],8 µg/mL
same,MIC,[27],4 µg/mL
same,MFC,[28],32 µg/mL
same,MIC,[28],8 µg/mL
same,MBC,[29],8 µg/mL
same,MIC,[29],4 µg/mL
same,MFC50,[3],64 µg/mL
same,MFC90,[3],>128 µg/mL
same,MIC,[3]; Aspergillus sp.,33.6 µg/mL
same,MIC50,[3]; Aspergillus sp.,8 µg/mL
same,MIC90,[3]; Aspergillus sp.,64 µg/mL
same,MFC,[30],64 µg/mL
same,MIC,[30],32 µg/mL
same,MBC,[4],16 µg/mL
same,MIC,[4],4 µg/mL
same,MFC,[31],32 µg/mL
same,MIC,[31],8 µg/mL
same,MFC,[7],2 µg/mL
same,MIC,[7],1 µg/mL
same,MFC,[13],32 µg/mL
same,MIC,[13],16 µg/mL
same,MBC,[32],4 µg/mL
same,MIC,[32],1 µg/mL
same,MFC,[15],16 µg/mL
same,MIC,[15],8 µg/mL
same,hemolysis,[33],2.52%
same,hemolysis,[34],50%
same,MFC,[16],32 µg/mL
same,MIC,[16],8 µg/mL
same,MFC,[17],32 µg/mL
same,MIC,[17],8 µg/mL
same,MBC,[35],4 µg/mL
same,MIC,[35],1 µg/mL
same,MFC,[36],64 µg/mL
same,MIC,[36],32 µg/mL
same,hemolysis,[37],6%
same,MBC,[38],> 128 µg/mL
same,MIC,[38],32 µg/mL
same,MIC,[39],64 µg/mL
same,MBC,[40],> 128 µg/mL
same,MIC,[40],32 µg/mL
same,MIC,[41],64 µg/mL
same,MFC,[21],4 µg/mL
same,MIC,[21],2 µg/mL
same,MFC,[22],4 µg/mL
same,MIC,[22],8 µg/mL
same,MFC,[42],2 µg/mL
same,MIC,[42],1 µg/mL
same,MBC,[43],8 µg/mL
same,MIC,[43],2 µg/mL
same,MBC,[25],8 µg/mL
same,MIC,[25],1 µg/mL
same,MFC,[44],16 µg/mL
same,MIC,[44],4 µg/mL
same,MFC,[26],4 µg/mL
same,MIC,[26],16 µg/mL
C[C@@H]1[C@H](O)[C@@H](C)/C=C/C=C/C=C/C=C/C=C/C=C/C=C/[C@H](O[C@@H]2O[C@H](C)[C@@H](O)[C@H](N)[C@@H]2O)C[C@@H]2O[C@](O)(C[C@@H](O)C[C@@H](O)[C@H](O)CC[C@@H](O)C[C@@H](O)CC(=O)O[C@H]1C)C[C@H](O)[C@H]2C(=O)O [AMPHOTERICIN B],MFC,[27],0.5 µg/mL
same,MIC,[27],0.25 µg/mL
same,MFC,[28],4 µg/mL
same,MIC,[28],4 µg/mL
same,MFC50,[3],2 µg/mL
same,MFC90,[3],8 µg/mL
same,MFC,[3]; Aspergillus sp.,2.96 µg/mL
same,MIC,[3]; Aspergillus sp.,1.61 µg/mL
same,MIC50,[3]; Aspergillus sp.,1 µg/mL
same,MIC90,[3]; Aspergillus sp.,4 µg/mL
same,MFC,[30],4 µg/mL
same,MIC,[30],1 µg/mL
same,MFC,[31],4 µg/mL
same,MIC,[31],2 µg/mL
same,MFC,[7],> 64 µg/mL
same,MIC,[7],16 µg/mL
same,MFC,[13],1 µg/mL
same,MIC,[13],0.5 µg/mL
same,MFC,[15],0.5 µg/mL
same,MIC,[15],0.5 µg/mL
same,MFC,[16],0.5 µg/mL
same,MIC,[16],0.25 µg/mL
same,MFC,[17],0.5 µg/mL
same,MIC,[17],0.25 µg/mL
same,MFC,[36],4 µg/mL
same,MIC,[36],1 µg/mL
same,MFC,[21],2 µg/mL
same,MIC,[21],1 µg/mL
same,MFC,[22],0.25 µg/mL
same,MIC,[22],0.13 µg/mL
same,MFC,[42],1 µg/mL
same,MIC,[42],0.25 µg/mL
same,MFC,[44],2 µg/mL
same,MIC,[44],2 µg/mL
same,MFC,[26],1 µg/mL
same,MIC,[26],0.25 µg/mL

# Source: ChEMBL document CHEMBL1147026, “Synthesis of pseudopeptides based L-tryptophan as a potential antimicrobial agent” (Bioorg Med Chem Lett, 2007)
